Experimental data reported in PMC5118709, “Identification of Polo-like kinase 1 interaction inhibitors using a novel cell-based assay” (Scientific Reports, 2016).

Tested on: HeLa cells
Assay: mitotic defect phenotypes by immunofluorescence
Format: cell-based
Settings: 10 nM, 7 h
Procedure: HeLa cells were treated with these compounds along with the known PBD inhibitors PPG, TQ, Poloxin and the KD inhibitor BI2536 as controls, and then stained against α-Tubulin, pericentrin (a centrosome marker) and DNA (Fig. 2D). In all cases, there was a marked increase in the frequency of disorganized spindles compared with DMSO-treated control cells. This is expected as Plk1 plays multiple roles in spindle assembly and maintenance. […] Cpd 69, an analog of compound 122, induced a similar phenotype at lower concentrations (data not shown). This phenotype was not seen after treatment with BI2536.
For the mitotic defect phenotypes, 25 200 HeLa cells were plated on poly-L-lysine coated round cover slips in 24-well plates. The day after, cells were treated for 7 hours, and then washed with PHEM buffer at 37 °C before fixation in PHEM buffer containing 4% formaldehyde for 20 minutes at 37 °C. Cells were washed three times with TBS-tween 0.1% and plate was kept overnight at 4 °C. Next steps were followed as previously described except that coverslips were incubated in a dark wet chamber with antibodies. Anti-pericentrin (diluted 1:1000; Abcam), anti-α-tubulin DM1A (diluted 1:500; Sigma-Aldrich), Alexa Fluor 488 anti-rabbit and Texas-Red anti-mouse (diluted 1:200; Invitrogen) were used. Coverslips were mounted on slide using Vectashield media containing DAPI (Vector Laboratories).
Images shown in Fig. 2D were acquired on an AxioImager microscope (Carl Zeiss) with a 100x oil objective (NA 1.4 DICIII) and an AxioCam HRM camera (Carl Zeiss) using AxioVision software (Carl Zeiss).

SMILES | 2 > pericentrin foci (percentage of cells) | Disorganized spindles (percentage of cells)
CC[C@@H]1C(=O)N(C)c2cnc(Nc3ccc(C(=O)NC4CCN(C)CC4)cc3OC)nc2N1C1CCCC1 [BI2536] | 3 ± 2% | 55 ± 8%

Molecular target: GST-PBD367-603 of Plk1 (Homo sapiens, UniProt P53350)
Assay: fluorescence polarization assay PBD-phosphopeptide
Settings: FP - IC50 (μM), Table S3

GST-PBD367-603 of Plk1, sequence (P53350 367-603): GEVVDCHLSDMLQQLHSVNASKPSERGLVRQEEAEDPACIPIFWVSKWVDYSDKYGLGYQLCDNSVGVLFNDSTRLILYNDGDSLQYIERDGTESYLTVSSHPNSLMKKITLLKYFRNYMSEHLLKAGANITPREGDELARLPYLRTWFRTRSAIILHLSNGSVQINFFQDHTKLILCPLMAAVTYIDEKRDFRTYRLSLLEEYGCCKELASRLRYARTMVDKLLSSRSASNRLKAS

SMILES | IC50
O=C(OCCS(=O)(=O)c1ccccn1)c1ccccc1 [Cpd 124] | 68.6 ± 18.5 µM

Same assay, conditions: IC50 in FP, GST-PBD367-603 38 nM, 1 h pre-incubation, FITC-phosphopeptide 10 nM, Fig. 4C

SMILES | IC50
O=C(OCCS(=O)(=O)c1ccccn1)c1ccccc1 [Cpd 124] | 56 µM

Same assay, conditions: SAR

SMILES | activity in the FP assay
Cc1cc(C(F)(F)F)cc(SCCOC(=O)c2cccc(Cl)c2)n1 [Cpd 147, 2-((6-methyl-4-(trifluoromethyl)pyridin-2-yl)thio)ethyl 3-chlorobenzoate] | activity was abolished
Cc1cc(C(F)(F)F)cc([S+]([O-])CCOC(=O)c2cccc(Cl)c2)n1 (centres unmarked) [Cpd 148, 2-((6-methyl-4-(trifluoromethyl)pyridin-2-yl)sulfinyl)ethyl 3-chlorobenzoate] | activity was abolished
Cc1cc(C(F)(F)F)cc(S(=O)(=O)CCO)n1 [Cpd 158, 2-((6-methyl-4-(trifluoromethyl)pyridin-2-yl)sulfonyl)ethanol] | completely abrogated activity
O=C(NCCS(=O)(=O)c1ccc(C(F)(F)F)cn1)c1ccc(Cl)cc1 [Cpd 142] | activity was abolished
CCS(=O)(=O)c1cc(C(F)(F)F)cc(C)n1 [Cpd 169, 2-(ethylsulfonyl)-6-methyl-4-(trifluoromethyl)pyridine] | completely abrogated activity

Same assay, conditions: Table S3

SMILES | FP - IC50 (μM)
O=[N+]([O-])c1cccc(S(=O)(=O)NCCOc2cccc(Cl)c2Cl)c1 [Cpd 139] | No inhibition
Cc1cc(C(F)(F)F)cc(SCCOC(=O)c2cccc(Cl)c2)n1 [Cpd 147, 2-((6-methyl-4-(trifluoromethyl)pyridin-2-yl)thio)ethyl 3-chlorobenzoate] | No inhibition
Cc1cc(C(F)(F)F)cc(SCCOC(=O)c2cccc(Br)c2)n1 [Cpd 153] | No inhibition
Cc1ccc(S(=O)(=O)CCC(=O)Nc2cccc(Cl)c2)cc1 [Cpd 137] | No inhibition
Cc1ccc(S(=O)(=O)CCC(=O)OCc2ccc(Cl)c(Cl)c2)cc1 [Cpd 138] | No inhibition
Cc1cc(C(F)(F)F)cc([S+]([O-])CCOC(=O)c2cccc(Cl)c2)n1 (centres unmarked) [Cpd 148, 2-((6-methyl-4-(trifluoromethyl)pyridin-2-yl)sulfinyl)ethyl 3-chlorobenzoate] | No inhibition
Cc1cccc(C(=O)OCCSc2cc(C(F)(F)F)cc(C)n2)c1 [Cpd 150] | No inhibition
O=S(=O)(CC(O)COc1ccccc1)c1ccccn1 (centres unmarked) [Cpd 136] | No inhibition
Cc1cc(C(F)(F)F)cc(S(=O)(=O)CCO)n1 [Cpd 158, 2-((6-methyl-4-(trifluoromethyl)pyridin-2-yl)sulfonyl)ethanol] | No inhibition
Cc1cc(C(F)(F)F)cc(SCCOC(=O)C2CCCCC2)n1 [Cpd 168] | No inhibition
O=C(CS(=O)(=O)c1ccc(C(F)(F)F)cn1)NNC(=O)c1ccccc1 [Cpd 144] | No inhibition
O=C(NCCS(=O)(=O)c1ccc(C(F)(F)F)cn1)c1ccc(Cl)cc1 [Cpd 142] | No inhibition
CC(CC(=O)Nc1ccc(Cl)cc1)S(=O)(=O)c1ccc(Cl)cc1 (centres unmarked) [Cpd 141] | No inhibition
Cc1ccc(NC(=O)CCS(=O)(=O)c2ccccc2)c(Br)c1 [Cpd 145] | No inhibition
CCS(=O)(=O)c1cc(C(F)(F)F)cc(C)n1 [Cpd 169, 2-(ethylsulfonyl)-6-methyl-4-(trifluoromethyl)pyridine] | No inhibition
O=C(CS(=O)(=O)c1cc(C(F)(F)F)cc(C(F)(F)F)c1)Nc1ccccc1F [Cpd 143] | No inhibition
Cc1cc(C(F)(F)F)cc(SCCO)n1 [Cpd 146, 2-((6-methyl-4-(trifluoromethyl)pyridin-2-yl)thio) ethanol] | No inhibition
Cc1cc(C(F)(F)F)cc(SCCOC(=O)c2cccc(OC(F)(F)F)c2)n1 [Cpd 149] | No inhibition
Cc1cc(C(F)(F)F)cc(SCCOCc2cccc(Cl)c2)n1 [Cpd 157] | No inhibition
Cc1c(Cl)cccc1NC(=O)CCS(=O)(=O)c1ccccc1 [Cpd 140] | No inhibition
Cc1cc(C(F)(F)F)cc(SCCOC(=O)c2cc(Cl)cc(Cl)c2)n1 [Cpd 155] | No inhibition
Cc1cc(C(F)(F)F)cc(S(=O)(=O)CCOCc2cccc(Cl)c2)n1 [Cpd 159] | No inhibition

Same assay, conditions: read-out: FP - IC50; Table S3

SMILES | IC50
Cc1cc(C(F)(F)F)cc(S(=O)(=O)CCOC(=O)c2cccc(OC(F)(F)F)c2)n1 [Cpd 151] | 41.7 µM
Cc1cc(C(F)(F)F)cc(S(=O)(=O)CCOC(=O)C2CCCCC2)n1 [Cpd 160] | 75 µM
O=C(OCCS(=O)(=O)c1ccccn1)c1cccc(Cl)c1 [Cpd 127] | 187 µM
Cc1cc(C(F)(F)F)cc(S(=O)(=O)CCOS(C)(=O)=O)n1 [Cpd 164, 2-((6-methyl-4-(trifluoromethyl)pyridin-2-yl)sulfonyl) ethyl methanesulfonate] | 6 µM
Cc1cc(C(F)(F)F)cc(S(=O)(=O)CCOC(=O)c2cc(Cl)cc(Cl)c2)n1 [Cpd 156] | 48.1 µM
O=C(OCCS(=O)(=O)c1ccc([N+](=O)[O-])cn1)c1cccc(Cl)c1 [Cpd 133] | 5.4 µM
O=C(OCCS(=O)(=O)c1ccc(C(F)(F)F)cn1)c1ccccc1 [Cpd 129] | 8.5 µM
Cc1cccc(C(=O)OCCS(=O)(=O)c2cc(C(F)(F)F)cc(C)n2)c1 [Cpd 152] | 54.4 µM
Cc1ccc(C(=O)OCCS(=O)(=O)c2ccc(C(F)(F)F)cn2)cc1 [Cpd 123] | 7.2 µM
O=C(OCCS(=O)(=O)c1ccc(Cl)cn1)c1cccc(Cl)c1 [Cpd 131] | 70.5 µM
CC(C)(C)c1ccc(C(=O)OCCS(=O)(=O)c2ccc(C(F)(F)F)cn2)cc1 [Cpd 132] | 26.1 µM
Cc1cc(C(F)(F)F)cc(S(=O)(=O)CCOC(=O)c2cccc(Br)c2)n1 [Cpd 154] | 36.8 µM
O=C(OCCS(=O)(=O)c1ccc(C(F)(F)F)cn1)c1cccc(Cl)c1 [Cpd 125] | 11.9 ± 7.2 µM
O=C(OCCS(=O)(=O)c1ncccc1C(F)(F)F)c1cccc(Cl)c1 [Cpd 128] | 8.4 µM
O=C(OCCS(=O)(=O)c1ncccc1Cl)c1cccc(Cl)c1 [Cpd 126] | 4.3 µM
O=C(OCCS(=O)(=O)c1ccc(C(F)(F)F)cn1)c1ccc(Cl)c(Cl)c1 [Cpd 130] | 7.8 µM
